Laboratory results reported in article PMC9107766, “Inhibitory effect of lignin on the hydrolysis of xylan by thermophilic and thermolabile GH11 xylanases” (Biotechnology for Biofuels and Bioproducts, 2022).

How the values were obtained:
[1] = biological target: T1, TrXyn1 (Trichoderma reesei, UniProt P36218); test: birch wood xylan hydrolysis yield, reducing sugars by PAHBAH; type: biochemical; details: tested at 10, 100 and 1000 µg/ml; 1% xylan, 50 mM Na-citrate pH 5, 40 or 50 °C; concentration of the printed value not given
T1 construct: gene xyn1; natural single-domain GH11 enzyme, homologously produced and purified from T. reesei culture supernatant
T1 sequence (P36218 52-229): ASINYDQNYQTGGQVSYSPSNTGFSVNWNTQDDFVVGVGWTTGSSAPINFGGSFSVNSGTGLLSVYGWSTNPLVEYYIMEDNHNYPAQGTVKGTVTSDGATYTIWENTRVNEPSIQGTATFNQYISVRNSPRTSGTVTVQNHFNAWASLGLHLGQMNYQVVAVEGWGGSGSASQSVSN

[2] = biological target: T2, TrXyn2 (Trichoderma reesei, UniProt P36217); test: as above; type: biochemical; details: tested at 10, 100 and 1000 µg/ml; 1% xylan, 50 mM Na-citrate pH 5, 40 or 50 °C
T2 construct: gene xyn2; natural single-domain GH11 enzyme, homologously produced and purified from T. reesei culture supernatant
T2 sequence (P36217 34-223): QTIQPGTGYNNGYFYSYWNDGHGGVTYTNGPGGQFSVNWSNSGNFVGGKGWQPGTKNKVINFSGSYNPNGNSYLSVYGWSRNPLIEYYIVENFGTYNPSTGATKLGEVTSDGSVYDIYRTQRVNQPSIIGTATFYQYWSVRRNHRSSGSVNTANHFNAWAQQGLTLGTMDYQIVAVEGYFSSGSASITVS

% reduction in the hydrolysis yield [1]: 50%
SMILES: COc1cc(C=O)cc(OC)c1O [syringaldehyde]
reduction in hydrolysis yield [2]: only syringaldehyde showed a clear inhibitory effect on the hydrolysis for all the tested xylanases
